The values that follow come from paper PMC9674596, “Origin of acetylcholine antagonism in ELIC, a bacterial pentameric ligand-gated ion channel” (Communications Biology, 2022).

Entries after “also recorded” stand apart in the source; their conditions may differ.

The target in test [1] is T1, ELIC A75D/F133W (Dickeya chrysanthemi, UniProt P0C7B7, A75D/F133W/INS163G).
T1 construct: expressed in transfected cells; host or cells: Xenopus laevis oocytes injected with cRNA; DNA construct synthesised by Twist Bioscience
The test is described as follows: Two-electrode voltage clamp, A75D/F133W double mutant ELIC expressed in Xenopus laevis oocytes. The settings on record: for Response when applied by themselves: 50 mM applied for 40 s without cysteamine; for Potentiation of the cysteamine response on co-application: 50 mM co-applied in the middle of a cysteamine pulse at EC50 (6.9 mM); for Activation by amine (whole-cell response): 25 mM amine; for Activation by amine (whole-cell response) / Effect of co-applied ligand on cysteamine-activated current: cysteamine at its EC50; for Effect of co-applied ligand on cysteamine-activated current: 25 mM ligand, 40 s pulse. It is filed as cell-based, Erwinia chrysanthemi. The protocol:
(§1) Stage V-VI Xenopus laevis oocytes were isolated[72] and deflocculated enzymatically in ND96 buffer without Ca^2+ (96 mM NaCl, 2 mM KCl, 1 mM MgCl2, 2 mM pyruvate, 5 mM HEPES, pH 7.4), but supplemented with 1 mg/mL collagenase B and 1 mg/mL trypsin inhibitor, for 2 h at room temperature under constant stirring. The deflocculation buffer was then gradually removed by washing the oocytes in ND96 buffer (96 mM NaCl, 2 mM KCl, 1 mM MgCl2, 1 mM CaCl2, 2 mM pyruvate, 5 mM HEPES, pH 7.4) for several iterations. The oocytes were then allowed to stir for an additional hour at room temperature under constant stirring with the buffer being periodically replaced until clear. To obtain optimal receptor expression, individually selected and healthy oocytes were injected with 0.2 ng cRNA for wild-type ELIC and 5 ng cRNA for mutants. Subsequently, oocytes were incubated for one day at 16 °C in ND96^+ buffer (96 mM NaCl, 2 mM KCl, 1 mM MgCl2, 1 mM CaCl2, 2 mM pyruvate, and 5 mM HEPES at pH 7.6). After expression, injected oocytes were placed in a RC-1Z oocyte chamber (Harvard Apparatus; Hamden, CT) containing buffer (pH 7.4) composed of 150 mM NaCl, 0.5 mM BaCl2, 10 mM HEPES, and 1 mM dithiothreitol or 1 µM atropine if cysteamine, or ACh, was used in the experiment, respectively. The presence of the reducing agent, dithiothreitol, ensures that the sulfhydryl group of cysteamine remains reduced.
(§2) Once in the oocyte chamber, whole-cell currents were recorded using a two-electrode voltage-clamp apparatus (OC-725C oocyte clamp; Harvard Apparatus), with a buffer flow rate of 5–10 mL min^−1. Currents in response to various additions of cysteamine and/or ACh, were measured with the transmembrane voltage clamped at −60 mV. Dose response curves for each wild-type and mutant ELIC were acquired from at least five oocytes in two different batches.
(§3) For identifying the half maximal effective concentration (EC50) and apparent Hill coefficient (nH) of cysteamine, dose response curves were created by taking the magnitude of each cysteamine-activated peak current (I) and normalizing this value to the maximal peak current in the presence of excess agonist (Imax). The log (base 10) cysteamine concentration in molar was then plotted on the x-axis against the fractional response (I/Imax) on the y-axis. The data was fitted using nonlinear regression with a variable slope sigmoidal dose response (Eq. 1, below) in GraphPad Prism (v.8.0.0).1 y=1/1+10^nH^LogEC50−X
(§4) Individual EC50 and Hill coefficients were averaged for each oocyte to derive a mean ± standard deviation. For identifying a half maximal inhibitory concentration (IC50) and Hill coefficient of ACh, a concentration of cysteamine corresponding to its EC50 was used in the presence of increasing concentrations of ACh. Peak currents elicited from cysteamine with ACh (I) were normalized to the initial cysteamine peak current in the absence of ACh (Io). The log (base 10) ACh concentration was then plotted on the x-axis against the fractional response (I/Io) on the y-axis. Subsequent steps were the same as above for deriving a cysteamine EC50 and Hill coefficient. The individual IC50 and Hill coefficients were averaged for each oocyte to derive a mean ± one standard deviation. Lastly, to identify four normalized response values, cysteamine at the 10% maximal effective concentration (EC10), 20% maximal effective concentration (EC20), EC50 and 90% maximal effective concentration (EC90), was applied in the presence and absence of 25 mM ACh. The cysteamine-activated peak current with 25 mM ACh, was normalized to the cysteamine-activated peak current without ACh.

For test [2], the target named is T2, wild-type ELIC (Dickeya chrysanthemi, UniProt P0C7B7, INS163G).
T2 construct: expressed in transfected cells; host or cells: Xenopus laevis oocytes injected with cRNA from ELIC-pTLN
The test is described as follows: Two-electrode voltage clamp, whole-cell currents of wild-type ELIC expressed in Xenopus laevis oocytes. It is filed as cell-based, Erwinia chrysanthemi. As to conditions: for Activation by amine (whole-cell response): 25 mM amine. The protocol:
as §1, §2, §3
as §4, with “[…] […]” for “For identifying a half maximal inhibitory concentration (IC50) and Hill coefficient of ACh, a concentration of cysteamine corresponding to its EC50 was used in the presence of increasing concentrations of ACh. Peak currents elicited from cysteamine with ACh (I) were normalized to the initial cysteamine peak current in the absence of ACh (Io).”

Test [3] concerns the target T2, wild-type ELIC. The settings on record: cited from earlier work.
In test [4] the target is ELIC Y38W (Dickeya chrysanthemi, UniProt P0C7B7, Y38W). In words: Two-electrode voltage clamp, Y38W mutant ELIC expressed in Xenopus laevis oocytes. In kind it is cell-based, Erwinia chrysanthemi. The settings on record: Y38W. The protocol:
as §1, §2, §3, §4

For test [5], the system named is ELIC Y38W. Described as above. It is filed as cell-based, Erwinia chrysanthemi. The settings on record: Y38W. The protocol:
as §1, §2, §3, §4

In test [6] the target is T3, ELIC A75D (Dickeya chrysanthemi, UniProt P0C7B7, A75D/INS163G).
T3 construct: expressed in transfected cells; host or cells: Xenopus laevis oocytes injected with cRNA from ELIC-pTLN
In words: Two-electrode voltage clamp, A75D mutant ELIC expressed in Xenopus laevis oocytes. In kind it is cell-based, Erwinia chrysanthemi. The settings on record: A75D.

Test [7] deals with T4, ELIC I79Y (Dickeya chrysanthemi, UniProt P0C7B7, I79Y/INS163G).
T4 construct: expressed in transfected cells; host or cells: Xenopus laevis oocytes injected with cRNA from ELIC-pTLN
The test is described as follows: Two-electrode voltage clamp, I79Y mutant ELIC expressed in Xenopus laevis oocytes. In kind it is cell-based, Erwinia chrysanthemi. The settings on record: ACh 0.5 mM to 50 mM, followed by 5 mM cysteamine. The protocol:
as §1, §2, §3
as §4, with “The cysteamine-activated peak current with 25 mM ACh, was normalized to the cysteamine-activated peak current without ACh.” left out

Test [8] has as its target ELIC F133W (Dickeya chrysanthemi, UniProt P0C7B7, F133W). The test is described as follows: cell-based. In kind it is cell-based, Erwinia chrysanthemi. As to conditions: F133W. The protocol: as §1, §2, §3, §4
The target of test [9] is T5, ELIC L240A (L9′A) (Dickeya chrysanthemi, UniProt P0C7B7, L239A).
T5 construct: expressed in transfected cells; host or cells: Xenopus laevis oocytes injected with cRNA from ELIC-pTLN
In words: Two-electrode voltage clamp, L240A (L9′A) mutant ELIC expressed in Xenopus laevis oocytes. In kind it is cell-based, Erwinia chrysanthemi. The settings on record: L9′A; 30 s applications of ACh 0.5 to 50 mM, then 5 mM cysteamine. The protocol:
as §1, §2, §3
(§5) Individual EC50 and Hill coefficients were averaged for each oocyte to derive a mean ± standard deviation. For identifying a half maximal inhibitory concentration (IC50) and Hill coefficient of ACh, a concentration of cysteamine corresponding to its EC50 was used in the presence of increasing concentrations of ACh. […]

Test [10] concerns the target T6, ELIC L240A (L9′A) + A75D/F133W (Dickeya chrysanthemi, UniProt P0C7B7, A75D/F133W/L239A).
T6 construct: expressed in transfected cells; host or cells: Xenopus laevis oocytes injected with cRNA
The test is described as follows: Two-electrode voltage clamp, L9′A + A75D/F133W triple mutant ELIC expressed in Xenopus laevis oocytes. In kind it is cell-based, Erwinia chrysanthemi. As to conditions: L9′A + A75D/F133W; 30 s applications of ACh 0.5 to 50 mM, then 5 mM cysteamine. The protocol: as §1, §2, §3, §5

For test [11], the target named is T2, wild-type ELIC. The test is described as follows: Two-electrode voltage clamp, whole-cell currents of wild-type ELIC expressed in Xenopus laevis oocytes. In kind it is cell-based, Erwinia chrysanthemi. As to conditions: WT ELIC, ACh inhibition of GABA-activated current.
Setting [12] is: WT, 25 mM ligand, 40 s pulse, cysteamine at its EC50.
Setting [13] is: ACh inhibition, cysteamine at its EC50.
Setting [14] is: cysteamine at EC10, EC20, EC50, EC90.
Setting [15] is: ACh 0.5 mM to 50 mM, followed by 5 mM cysteamine.

For `OC[C@H]1O[C@@](CO)(O[C@H]2O[C@H](CO)[C@@H](O)[C@H](O)[C@H]2O)[C@@H](O)[C@@H]1O` [sucrose], in test [1], the “Response when applied by themselves” value is given as “negligible response” and the “Potentiation of the cysteamine response on co-application” value (“Potentiation of the cysteamine response” below) is listed as “did not potentiate”.

Regarding `C[N+](C)(C)C` [tetramethylammonium, Tetramethylammonium], the “Activation by amine (whole-cell response)” value (shortened to “Activation by amine”) in test [2] (WT) and in [1] was “fail to activate” in each case.

On to `[Cl-].[Na+]` [NaCl, sodium chloride], for which, in [1], the “Response when applied by themselves” value was “negligible response” and the “Potentiation of the cysteamine response” value is “small, but reproducible, degree of potentiation”.

With `CC(=O)OCCN(C)C` [DMAEA, 2-dimethylaminoethyl acetate], the “Activation by amine” value in [2] (WT) and in test [1] was “activate” throughout. Also, in test [1] (25 mM), the “Effectiveness of activation compared with wild-type ELIC” value is on record as “much less effective than observed with wild-type ELIC”. Moreover, the “Action on ELIC” value in test [3] is “able to activate ELIC”.

`NCCCC(=O)O` [GABA, γ-aminobutyric acid]: the “Activation Hill coefficient” value in test [2] (WT ELIC, agonist activation) worked out at 4.0 ± 0.7. The “Increase of cysteamine-activated current by co-applied ligand” value in test [2] (setting [12]) was “roughly 2 fold”. In addition, the “Macroscopic activation/deactivation kinetics of agonist-activated currents” value in test [2] (WT, compared with cysteamine, agonists at their EC50) is given as “slower macroscopic activation/deactivation kinetics”. In addition, in test [1], the “Activation by amine” value is “fails to elicit a response” and the “Effect of co-applied ligand on cysteamine-activated current” value was “same small degree of potentiation”. Also, the “Action on ELIC” value in test [3] is listed as “agonist”.

`CN(C)C` [trimethylamine, Trimethylamine]: the “Activation by amine” value in [2] (WT) and in [1] was “activate” each time.

For `CCCN` [propylamine], the “Action on ELIC” value in [3] is recorded as “agonists”.

As for `CC(=O)OCC[N+](C)(C)C` [ACh, acetylcholine], the “Inhibition Hill coefficient” value in test [2] (WT ELIC, ACh inhibition of cysteamine-activated current) is “–1.1 ± 0.1”; in [4] (setting [13]), “–1.4 ± 0.1”; in test [6] (setting [13]), “–0.7 ± 0.1”; in [8] (setting [13]), “–1.1 ± 0.1”; in test [11] it was “–1.0 ± 0.3”. The “Activation by amine” value in test [2] (WT) and in test [1] was “fail to activate” each time. For the same compound, the “Effect of co-applied ligand on cysteamine-activated current” value in test [2] (setting [12]) is “completely inhibited”; in test [1], “same small degree of potentiation”. For the same compound, the “Effect of 25 mM ACh on cysteamine-activated currents” value in test [2] (WT, cysteamine at EC10, EC20, EC50, EC90) is given as “nearly fully inhibited”; in [4] (setting [14]), “nearly fully inhibited”; in [6] (setting [14]) it was “increasing the concentration of cysteamine reduced the degree of inhibition”; in test [8] (setting [14]), “increasing the concentration of cysteamine reduced the degree of inhibition”. For the same compound, the “Peak current on application of ligand alone” value in test [2] (WT, ACh 0.5 mM to 50 mM, followed by 5 mM cysteamine) is “None of the single mutants, nor wild-type ELIC, produced any peak current”; in test [4] (setting [15]), “None of the single mutants, nor wild-type ELIC, produced any peak current”; in [6] (setting [15]) it was “None of the single mutants, nor wild-type ELIC, produced any peak current”; in [7], “None of the single mutants, nor wild-type ELIC, produced any peak current”; in [8] (setting [15]), “None of the single mutants, nor wild-type ELIC, produced any peak current”. Besides, in [5], the “Decrease in ACh IC50 relative to wild-type” value is recorded as 3 fold. Moreover, the “Increase in ACh IC50 relative to wild-type” value in test [6] is 7 fold. The “Potentiation of the cysteamine response” value in [1] is on record as “potentiation”. The “Effect of high ACh concentrations on cysteamine peak current” value in test [1] (ACh 50–100 mM, cysteamine at EC50) was “appeared to potentiate”. Moreover, the “ACh inhibition of the cysteamine response” value in [1] (cysteamine fixed at EC50 (6.9 mM), ACh up to 100 mM) is “failed to inhibit; also recorded: no inhibition by ACh is observed”. The “Current on application of ligand alone” value in [9] and in test [10] was “Neither mutant produced observable current; also recorded: No ACh-induced currents were observed” in each case. The “Action on ELIC” value in [3] was “competitive antagonist”.
